What was measured:
Assay type in all cases: cell-based, human
[1] = tested on: SW620C cells (cisplatin-resistant); assay: Neutral red uptake viability assay, SW620C; conditions: for survival rate / Cytotoxic activity IC50 (95% CI) / IC50: SW620C, 72 h; for survival rate: n = 3, ± SD; for Cytotoxic activity IC50 (95% CI) / IC50: n = 3; for IC50: read-out: Cytotoxic activity IC50 (95% CI)
Description: (§1) The normal lung fibroblast MRC-5 and colorectal adenocarcinoma SW620 cell lines used in this experiment were purchased from American Type Culture Collection (USA) via LGC […]
(§2) described previously.10, 11 All cells were cultured under standard conditions (37°C, 5% CO2, 100% humidity) in high-glucose DMEM supplemented with GlutaMaxTM, HEPES (ThermoFisher Scientific, USA), and 10% fetal bovine serum (EURx, Poland). Cells were routinely tested for potential Mycoplasma contamination using the MycoProbe Mycoplasma Detection kit (R&D System, USA).
(§3) In total, 104 cells in 100 µL of complete medium were plated per well of a 96-well plate and left overnight to allow cells to adhere to the surface. Then, the cells were exposed to a desired concentration of tested compound(s). Stock solutions were prepared in DMSO and used immediately. The final DMSO concentration was constant and nontoxic (0.1% v/v). After 70-h incubation, neutral red was added to the final concentration of 1 mM. After another 2 h, the medium was aspirated, and cells were washed twice with PBS. Dye was released using 100 µL of a solubilizer (1% acetic acid in 50% ethanol) on an orbital shaker (10 min). Absorbance was read at 540 nm using EnVision Multilabel Plate Reader (Perkin Elmer, USA). Results were expressed as % of control. The IC50 parameters were calculated using GraphPad Prism version 10 (GraphPad Software, Boston, Massachusetts USA). […]
IC₅₀ values were determined in […]
(§4) All experiments were performed in triplicate (n = 3).

[2] = tested on: SW620D cells (doxorubicin-resistant); assay: Neutral red uptake viability assay, SW620D; conditions: 72 h; for survival rate: n = 3, ± SD; for IC50: n = 3, read-out: Cytotoxic activity IC50 (95% CI)
Description: (§5) In general, compounds 4a–e exerted little or no cytotoxic effect on either SW620 or multidrug-resistant sublines even at 10 μM, with the remarkable exception of SW620C (cisplatin-selected variant of SW620) cells, which turned out to be relatively susceptible toward ferrocenyl 4a–c. […] This trend may reflect steric or electronic contributions to cellular uptake or interaction with intracellular targets. […] However, since E/Z isomeric data are currently available only for compound 4c, this hypothesis requires validation. To quantify this effect, IC50 values were determined (Table ). […]
as §1
as §2, with “Standards. Multidrug-resistant variants of SW620 cells were developed in our laboratory as described” for “described”
(§6) In total, 104 cells in 100 µL of complete medium were plated per well of a 96-well plate and left overnight to allow cells to adhere to the surface. Then, the cells were exposed to a desired concentration of tested compound(s). Stock solutions were prepared in DMSO and used immediately. The final DMSO concentration was constant and nontoxic (0.1% v/v). After 70-h incubation, neutral red was added to the final concentration of 1 mM. After another 2 h, the medium was aspirated, and cells were washed twice with PBS. Dye was released using 100 µL of a solubilizer (1% acetic acid in 50% ethanol) on an orbital shaker (10 min). Absorbance was read at 540 nm using EnVision Multilabel Plate Reader (Perkin Elmer, USA). Results were expressed as % of control. The IC50 parameters were calculated using GraphPad Prism version 10 (GraphPad Software, Boston, Massachusetts USA).
(§7) The enhancement of reversal potency (ERP) value determination
(§8) For MDR reversal assays, cytotoxic agents were co-administered with compounds 4a–4e at equimolar concentrations in a range of 10 nM to 100 µM. IC₅₀ values were determined in ABCB1-overexpressing SW620 cell line variants. The enhancement of reversal potency (ERP) was calculated using the following formula: ERP = IC₅₀(drug)MDR / IC₅₀(drug + compound)MDR. All experiments were performed in triplicate (n = 3).

[3] = tested on: SW620M cells (methotrexate-resistant); assay: Neutral red uptake viability assay, SW620M; conditions: 72 h; for survival rate: n = 3, ± SD; for IC50: n = 3, read-out: Cytotoxic activity IC50 (95% CI)
Description: as §5, §1
as §2, with “Standards. Multidrug-resistant variants of SW620 cells were developed in our laboratory as described” for “described”
as §3, §4

[4] = tested on: SW620V cells (vincristine-resistant); assay: Neutral red uptake viability assay, SW620V; conditions: 72 h; for survival rate: n = 3, ± SD; for IC50: n = 3, read-out: Cytotoxic activity IC50 (95% CI)
Description: as §5, §1
as §2, with “Standards. Multidrug-resistant variants of SW620 cells were developed in our laboratory as described” for “described”
as §6, §7, §8

[5] = tested on: ABCB1-overexpressing SW620D cells; assay: MDR reversal assay (ERP), SW620D; conditions: for ERP value, doxorubicin + compound: SW620D (xlsx); for ERP = IC50(drug)MDR/IC50(drug+4)MDR: doxorubicin, SW620D
Text: (§9) We investigated the potency of 4a–e to inhibit ABC transporters (ABCB1, ABCC1, and ABCG2) by determining their enhancement of reversal potency (ERP) values. ERP represents fold changes in the IC50 values of anticancer drugs in multidrug-resistant cancer sublines (ABCB1-overexpressing SW620D, SW620E, and SW620V; ABCC1-overexpressing SW620M; ABCG2-overexpressing SW620C and SW620Mito) exposed to a combination of the investigated compounds and anticancer agents at equimolar concentrations, compared with values obtained with drugs alone (Tables S2 and S3 and Figure ).
as §2, with “Standards. Multidrug-resistant variants of SW620 cells were developed in our laboratory as described” for “described”
as §6, §7, §8

[6] = tested on: ABCG2-overexpressing SW620C cells; assay: MDR reversal assay (ERP), SW620C; conditions: for ERP value, cisplatin + compound: SW620C (xlsx); for ERP = IC50(drug)MDR/IC50(drug+4)MDR: cisplatin, SW620C
Text: as §9
as §2, with “Standards. Multidrug-resistant variants of SW620 cells were developed in our laboratory as described” for “described”
as §6, §7, §8

[7] = tested on: ABCG2-overexpressing SW620Mito cells; assay: MDR reversal assay (ERP), SW620Mito; conditions: for ERP value, mitoxantrone + compound: SW620Mito (xlsx); for ERP = IC50(drug)MDR/IC50(drug+4)MDR: mitoxantrone, SW620Mito
Text: as §9
as §2, with “Standards. Multidrug-resistant variants of SW620 cells were developed in our laboratory as described” for “described”
as §6, §7, §8

[8] = tested on: SW620 cells; assay: Synergy determination (Bliss model, SynergyFinder), SW620;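 note: score below −10 means likely antagonism and −10 to 10 means additive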
Text: (§10) In an ideal setting, the effect of cell exposure to a combination of a chemotherapeutic and an MDR inhibitor should be synergistic. […] The highest synergy scores identified an optimal concentration range where the combination exerted its maximal effect. […] In cisplatin-resistant SW620C cells, the low or lack of synergy observed for most compounds may be due to the additive effects of cisplatin and 4 rather than a true synergistic interaction. […]
(§11) To evaluate the potential interactions between putative ABC inhibitors and anticancer drugs, we utilized the Bliss independence model, as implemented in the SynergyFinder web application.13, 14 Synergy scores and the most synergistic area scores were calculated based on the normalized dose–response matrices. A synergy score below −10 indicates likely […]
(§12) above 10 is indicative of likely synergistic interactions.
(§13) All experiments were performed at least three times, and the data were statistically analyzed

[9] = tested on: SW620C cells; assay: Synergy determination (Bliss model, SynergyFinder), SW620C; conditions: drug cisplatin + additive; for synergy score: Bliss model
Text: as §10, §11, §12, §13

[10] = tested on: SW620E cells; assay: Synergy determination (Bliss model, SynergyFinder), SW620E; conditions: drug etoposide + additive; for synergy score: Bliss model
Text: as §10, §11, §12, §13

SMILES | survival rate ([1]; 1 μM) [%] | survival rate ([1]; 10 μM) [%] | survival rate ([2]; 1 μM) [%] | survival rate ([2]; 10 μM) [%] | survival rate ([3]; 1 μM) [%] | survival rate ([3]; 10 μM) [%] | survival rate ([4]; 1 μM) [%] | survival rate ([4]; 10 μM) [%] | ERP value, doxorubicin + compound [5] | ERP = IC50(drug)MDR/IC50(drug+4)MDR [5] | ERP value, cisplatin + compound [6] | ERP value, mitoxantrone + compound [7] | ERP = IC50(drug)MDR/IC50(drug+4)MDR [7] | synergy score (in parentheses) ([8]; drug cisplatin + additive) | synergy score (in parentheses) ([8]; drug doxorubicin + additive) | synergy score (in parentheses) ([8]; drug etoposide + additive) | synergy score (in parentheses) ([8]; drug mitoxantrone + additive) | most synergistic area score [9] | synergy score [9] | most synergistic area score [10] | further results
O=C1N/C(=C\[c-]2cccc2)C(=O)N2CCC[C@@H]12.[Fe+2].c1cc[cH-]c1 [(S,Z)-4a] | 78 ± 1.8 | 54 ± 3.1 | 96 ± 4.8 | 93 ± 1.1 | 93 ± 0.9 | 98 ± 2.3 | 94 ± 0.7 | 94 ± 2.5 | 2.90 | 2.90 | 4.86 | 4.61 | 4.61 | −4.74 | −4.15 | −4.45 | −1.66 | 4.33 | –2.62 | 28.26 | Cytotoxic activity IC50 (95% CI) [1]: low-micromolar; IC50 [1]: 15.1 µM; IC50 [2]: > 100 µM; IC50 [3]: > 100 µM; IC50 [4]: > 100 µM; ERP = IC50(drug)MDR/IC50(drug+4)MDR [6]: 4.86; synergy score (in parentheses) ([8]; drug methotrexate + additive): −5.99; synergy score (in parentheses) ([8]; drug vincristine + additive): −0.36; synergy score [10]: 12.44
O=C1N/C(=C/c2ccccc2)C(=O)N2CCC[C@@H]12 [(S,E)-4e] | 96 ± 0.8 | 95 ± 2.5 | 96 ± 2.4 | 95 ± 0.7 | 93 ± 0.3 | 95 ± 3.4 | 95 ± 2.9 | 95 ± 3.3 | 0.77 | 0.77 | 1.98 | 0.82 | 0.82 | −4.17 | −4.78 | −1.15 | −3.41 | 3.89 | –2.78 | 0.19 | ERP = IC50(drug)MDR/IC50(drug+4)MDR [6]: 1.98; synergy score [10]: –3.93
O=C1N/C(=C/c2cccc(-[c-]3cccc3)c2)C(=O)N2CCC[C@@H]12.[Fe+2].c1cc[cH-]c1 [(S,E)-4c] | 84 ± 0.7 | 87 ± 1.1 | 95 ± 1.5 | 95 ± 4.5 | 93 ± 1.8 | 96 ± 4.6 | 96 ± 1.8 | 94 ± 0.8 | 0.77 | 0.77 | 3.45 | 0.87 | 0.87 | −4.66 | −1.89 | −4.80 | 0.86 | 8.86 | 0.39 | 1.22 | fold higher IC50 value than (S,Z)-4c ([1]; SW620C cells): 13 fold; IC50 [1]: 62.4 µM; IC50 [2]: > 100 µM; IC50 [3]: > 100 µM; IC50 [4]: > 100 µM; synergy score (in parentheses) ([8]; drug methotrexate + additive): −4.31; synergy score [10]: –4.06
O=C1N/C(=C\c2ccccc2-[c-]2cccc2)C(=O)N2CCC[C@@H]12.[Fe+2].c1cc[cH-]c1 [(S,Z)-4b] | 83 ± 4.2 | 57 ± 1.1 | 97 ± 1.0 | 87 ± 3.0 | 97 ± 0.8 | 96 ± 3.5 | 92 ± 0.9 | 95 ± 2.4 | 2.34 | 2.34 | 4.53 | 9.11 | 9.11 | −5.00 | −2.67 | −5.23 | −3.17 | 0.00 | –2.78 | 14.42 | Cytotoxic activity IC50 (95% CI) [1]: low-micromolar; IC50 [1]: 12 µM; IC50 [2]: > 100 µM; IC50 [3]: 52.2 µM; IC50 [4]: 48.8 µM; ERP = IC50(drug)MDR/IC50(drug+4)MDR [6]: 4.53; synergy score (in parentheses) ([8]; drug methotrexate + additive): 3.26; synergy score (in parentheses) ([8]; drug vincristine + additive): 5.77; synergy score [10]: 3.32
O=C1N/C(=C\c2ccccc2)C(=O)N2CCC[C@@H]12 [(S,Z)-4e] | 95 ± 2.1 | 95 ± 1.0 | 96 ± 0.7 | 94 ± 2.9 | 96 ± 4.8 | 95 ± 4.0 | 98 ± 0.9 | 99 ± 1.4 | 0.70 | 0.70 | 0.70 | 1.01 | 1.01 | −3.94 | −3.90 | −3.96 | 1.87 | 6.66 | –3.14 | 2.22 | ERP = IC50(drug)MDR/IC50(drug+4)MDR [6]: 0.70; synergy score [10]: –2.56

From publication PMC12257394, “Design, Synthesis, and Biological Evaluation of Ferrocenyl–Cyclo-(Gly‑L‑Pro) Hybrids Sensitizing Multidrug-Resistant Cancer Cells to Anticancer Agents” (ACS Medicinal Chemistry Letters, 2025)
